Legend:
Format in all cases: in vivo
[1] = test system: scopolamine-induced amnesic mice; test: Modified Y-maze test; details: i.p. 1 h before, scopolamine 1 mg/kg, doses as in the sentence
Protocol: The modified Y-maze test was performed to evaluate spatial working memory. The experiment was divided into 3 sessions; (i) IND8 at 5, 10, and 50 μmol/kg or 1.5, 2.9, and 14.7 mg/kg doses, (ii) QND8 at 5, 10, and 50 μmol/kg or 1.4, 2.7, 13.5 mg/kg doses, and (iii) IND8 and QND8 at dose of 25 μmol/kg or 7.3 and 6.8 mg/kg, respectively and PNU-282987 at […] or 3, 10 mg/kg doses.
FIG. 21 illustrates the percentage of unfamiliar arm exploration in modified Y-maze of IND8 (FIG. 21A), QND8 (FIG. 21B), and IND8, QND8, PNU-282987 (FIG. 21C). IND8, QND8, PNU-282987, vehicle (15% Tween80, SH) and tacrine (TC) were injected 1 h and scopolamine (SC) 30 min before sample phase, respectively. Each mouse was placed at the end of one arm and allowed to access 2 arms of Y-maze for 5 min in sample phase. After a 30 min period, the mouse was allowed to explore 3 arms for 5 min. The number of entries for each arm was recorded and the percentage of unfamiliar arm exploration was calculated. Data represented in means±standard errors (SE).
Male ICR mice (6-weeks of age) were housed in 5 per cage with free access to food and tap water under 12 h light and dark cycle (light on 6:00 to 18:00) in a temperature and humidity controlled room. They were acclimated in a laboratory at least 7 days prior to starting experiments. The experimental protocols were approved by the Animal Care and Use Committee of KhonKaen University, Thailand.
Tacrine hydrochloride (Sigma-Aldrich, St. Louis, Mo.), PNU-282987 hydrochloride (Alamone, Jerusalem, Israel) and test compounds were prepared as suspensions by using 15% tween 80 in distilled water as a vehicle, whereas scopolamine hydrochloride (Sigma-Aldrich, St. Louis, Mo.) and methyllycaconitine citrate (MLA) (Abcam, Cambridge, England) were prepared as a solution by dissolving with 0.9% normal saline solution (NSS). All compounds were administered by intraperitoneal (i.p.) injection in the amount of 5 mL/kg. Test compounds were injected 1 h and scopolamine was administered 30 min before the experiments, whereas MLA was injected 5 min before the test compounds.
(§1) Amnesia was induced pharmacologically in mice via scopolamine injection (single dose) for 30 min prior to start the experiments. They were divided into vehicle group: receiving 15% tween 80 and 0.9% NSS, amnesia group: receiving scopolamine 1 mg/kg, standard positive control group receiving tacrine 1 mg/kg, and test group: receiving IND8, QND8 at dose 5, 10, 25, 50 μmol/kg, or PNU-282987 3, 10 mg/kg, single dose. All mice were acclimated in an experimental room at least 30 min before the experiments.
The maze in this experiment is the same apparatus using in locomotor activity test except there is the black partition to close one of three arms. The mice were randomly separated into different treatment groups. They were injected with test compounds and scopolamine at 1 h and 30 min, respectively, before the sample phase. In this phase which one arm of Y-maze was closed by the black partition, each mouse was placed at the end of one arm and allowed to move through 2 arms for 5 min to get familiar with the two opened arms. After 30 min of resting, all arms were opened and the mouse was allowed to move freely through all 3 arms. The maze area and the partition were cleaned with 70% ethanol between each experiment to remove olfactory cues. The number of entries in each arm was counted visually if mice accessed into each arm at least 10 cm. The percentage of unfamiliar arm exploration was calculated as following equation: […]

[2] = test system: scopolamine-induced amnesic mice; test: Object recognition test (ORT); details: i.p., tacrine 1 mg/kg, IND8, QND8 10 and 50 μmol/kg
Protocol: FIG. 22 illustrates exploration time to familiar (F) and novel (N) objects of IND8 (A) and QND8 (B) in test phase of ORT. Each mouse was allowed to explore an open field apparatus for 5 min in a habituation phase. After a 24 h period, IND8, QND8, PNU-282987, vehicle (15% Tween80, SH) and tacrine (TC) were injected 1 h and scopolamine (SC) 30 min before sample phase, respectively. Each mouse explored 2 identical objects in the sample phase for 5 min and then placed in its cage for 10 min before the test phase began. In the 5 min of test phase, one of the objects was changed to a new one. The exploration time of these objects was recorded.
In both data sets, a discrimination index (DI) was calculated and used to evaluate the ability of mice to discriminate between familiar and novel objects. Data are represented in FIG. 23.
as §1
The apparatus was made of black polyvinyl chloride (52×52×40 cm). The objects used in this experiment had different visual shapes and colors to be discriminated. They were placed 10 cm from the side wall in the balanced manner. The box area and objects were cleaned with 70% ethanol between each experiment to remove odor cues.
The mice were randomly divided into different treatment groups. They were allowed to freely explore the open field apparatus for 5 min for habituation in the day prior to the experiments to get familiar with the apparatus. On the experimental day, test compounds injected 1 h, whereas scopolamine administered 30 min before the sample phase (acquisition trial). The mice were placed in the apparatus to explore 2 identical objects. After 10 min of acclimation in their cages, one object was changed to a new one, and mice were allowed to explore these objects for 5 min in the test phase (retention trial). The exploration time of each object was recorded if the nose of mice approached the objects within 3 cm or touched the objects. The discrimination index (DI) was calculated by using (TN−TF)/(TN+TF); TN and TF represented exploration time of new and familiar objects, respectively.

[3] = test system: scopolamine-induced amnesic mice; test: Water maze test; details: i.p., IND8 25 and 50 μmol/kg, QND8 25 μmol/kg
Protocol: The water maze test, a model for spatial learning and reference memory, related to function in the hippocampus, was also used as a study model in which mice locate a hidden platform after training session. Mice were trained to locate a hidden platform until a steady state measured by a shortened escape latency time was reached.
The average swimming time in a target quadrant where the platform had previously been placed was measured in the test day, day 8 (FIG. 25).
FIG. 25 illustrates the average swimming time in the target quadrant of water maze test. Data are presented in means±SE. IND8, QND8, PNU-282987, vehicle (15% Tween80, SH) and tacrine (TC) were injected 1 h and scopolamine (SC) 30 min before testing, respectively.
A black circular tank (diameter 70 cm; height 28 cm) was divided into 4 quadrants with a removable escape platform (6×7.5×14 cm) centered in a target quadrant. The tank was filled with water to 15 cm height and the platform was located 1 cm below the water surface.
Mice were trained from 5-7 days to get the steady state of escape latency. During day 1 to 5, each mouse was trained to swim from each quadrant with 1 min maximum time and allowed to stay on the platform for 10 sec. The mouse is placed on the platform for 10 s if it cannot find the hidden platform within 1 min. The escape latency time from each quadrant was measured. […] The probe test began when the escape latency time reached the steady state. The platform was removed and time spent in the target quadrant was measured. On the next day, all conditions were the same as probe test, but the platform was brought back to remind the mice of the target quadrant location. All mice were injected with test compounds 1 h and scopolamine 30 min before testing. The swimming time in the target quadrant was measured.

Nc1c2c(nc3ccccc13)CCCC2 [Tacrine, reference compound]
Unfamiliar arm exploration / cognitive deficit, modified Y-maze vs scopolamine-treated group [1]: reversed the cognitive deficit induced by scopolamine | Unfamiliar arm exploration / cognitive deficit, modified Y-maze vs scopolamine-treated group ([1]; listed as tacrine): can improve cognitive deficits induced by scopolamine in all test models | Discrimination index / episodic short-term memory, ORT vs scopolamine-treated group [2]: significantly improved episodic short-term memory | Discrimination index / episodic short-term memory, ORT vs scopolamine-treated group ([2]; listed as tacrine): can improve cognitive deficits induced by scopolamine in all test models | Time in target quadrant, water maze vs scopolamine-treated group [3]: significantly improved cognitive deficits | Time in target quadrant, water maze vs scopolamine-treated group ([3]; listed as tacrine): can improve cognitive deficits induced by scopolamine in all test models
